This note sets out measurements from ChEMBL document CHEMBL5725463, “Amino-dihydrothiazine and amino-dioxido dihydrothiazine compounds as beta-secretase antagonists and methods of use” (2017).

The target in one assay is Cathepsin D (Homo sapiens, UniProt P07339). In words: In Vitro Enzymatic: Recombinant Cat D was expressed in CHO cells. The assay buffer for CathepsinD is 0.05 M citrate pH 3.5, 10% DMSO final, 5 mM CHAPS. The Cat D enzyme (9 nM) is pre-incubated for one hour with inhibitors, typically in about 1 uL of DMSO according to a serial dilution, is added thereto. The assays are effectively started by the addition of different FRET substrates (20 nM for Cat D) and the combination is incubated for one hour. The FRET assay is terminated with by addition of Tris buffer, which raises the pH to neutrality, and the fluorescence is determined. The FRET substrate is a peptide with commercially available fluorophore and quencher, on opposite sides of the BACE cleavage site. The Cat D substrate peptide sequence is based on sequence #1 of Table 1 from Gulnik et al. FEBS Letters v413 p 379-384 1997. Proteolytic cleavage of the FRET substrate releases quenching of fluorescence (Cat D excitation 500 nm and emission 580 nm).Alternatively, a Cat D assay may also be run according to the procedure described in the article, Characterization of new fluorgenic substrates for the rapid and sensitive assay of cathepsin E and cathepsin D, J. Biochem., 125:1137, 1999. The class given is cell-based.
Sequence of Cathepsin D (P07339 65-162 limits assumed): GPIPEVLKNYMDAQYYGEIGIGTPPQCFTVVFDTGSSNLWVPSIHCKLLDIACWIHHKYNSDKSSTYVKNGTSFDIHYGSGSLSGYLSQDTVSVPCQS
Sequence of Cathepsin D (P07339 169-412 limits assumed): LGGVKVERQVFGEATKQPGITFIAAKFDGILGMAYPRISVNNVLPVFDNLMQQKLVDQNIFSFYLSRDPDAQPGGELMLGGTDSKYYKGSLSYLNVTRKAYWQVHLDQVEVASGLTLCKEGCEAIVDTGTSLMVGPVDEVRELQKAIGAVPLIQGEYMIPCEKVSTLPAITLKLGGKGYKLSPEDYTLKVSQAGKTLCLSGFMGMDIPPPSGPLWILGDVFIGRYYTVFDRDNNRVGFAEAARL

The next assay addresses Beta-secretase 1 (Homo sapiens, UniProt P56817). In words: In Vivo Inhibition of Beta-Secretase: Several animal models, including mouse, rat, dog, and monkey, may be used to screen for inhibition of beta-secretase activity in vivo following administration of a test compound sample. Animals used in this invention can be wild type, transgenic, or gene knockout animals. For example, the Tg2576 mouse model, prepared and conducted as described in Hsiao et al., 1996, Science 274, 99-102, and other non-transgenic or gene knockout animals are useful to analyze in vivo inhibition of Amyloid beta peptide (Abeta) production in the presence of inhibitory test compounds. Generally, 2 to 18 month old Tg2576 mice, gene knockout mice or non-transgenic animals are administered test compounds formulated in vehicles, such as cyclodextran, phosphate buffers, hydroxypropyl methylcellulose or other suitable vehicles. […]. The assay is classed as organism-based.

Sequence of Beta-secretase 1 (P56817 whole entry): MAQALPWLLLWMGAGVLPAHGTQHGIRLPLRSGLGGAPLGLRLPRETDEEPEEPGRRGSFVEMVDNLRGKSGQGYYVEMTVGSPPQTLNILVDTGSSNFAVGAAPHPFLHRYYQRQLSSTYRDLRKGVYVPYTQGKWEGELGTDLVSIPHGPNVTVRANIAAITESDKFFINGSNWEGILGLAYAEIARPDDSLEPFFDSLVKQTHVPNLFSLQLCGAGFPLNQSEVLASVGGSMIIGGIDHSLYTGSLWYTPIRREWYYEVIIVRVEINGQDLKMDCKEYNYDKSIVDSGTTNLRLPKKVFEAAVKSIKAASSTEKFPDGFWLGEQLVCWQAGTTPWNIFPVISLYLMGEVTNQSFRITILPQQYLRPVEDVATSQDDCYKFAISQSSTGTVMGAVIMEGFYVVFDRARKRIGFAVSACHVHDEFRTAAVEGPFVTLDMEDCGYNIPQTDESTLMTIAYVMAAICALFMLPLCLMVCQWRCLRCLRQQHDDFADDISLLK

For the compound `Cc1cc(C#N)cnc1C(=O)Nc1ccc(F)c([C@]2(C)CS(=O)(=O)C3(CCC3)C(N)=N2)c1`, the IC50 on Cathepsin D was 134 µM; at Beta-secretase 1 it was 0.00076 µM.
The corresponding values for `Cc1cc(Cl)cnc1C(=O)Nc1ccc(F)c([C@]2(C)CS(=O)(=O)C3(CCC3)C(N)=N2)c1` are 84.7 µM and 0.0016 µM.

The IC50 is the concentration at which inhibition is half-maximal.
